{"source": "paper PMC6720714", "about": "“Structural and Biological Characterizations of Novel High-Affinity Fluorescent Probes with Overlapped and Distinctive Binding Regions on CXCR4” (Molecules, 2019)", "molecules": {"B1": {"name": "DV1 dimer (peptide)", "chain": "[dL]G[dA][dS][dW][dH][dR][dP][dD][dK][dC][dC][dL]G[dY][dQ][dK][dR][dP][dL][dP]", "modifications": "cysteine pairing not given here; also: dimer (linkage not given here)"}}, "key": {"CXCR4 [1]": {"target": "T1, CXCR4 (Homo sapiens, UniProt P61073)", "T1 sequence (P61073 whole entry)": "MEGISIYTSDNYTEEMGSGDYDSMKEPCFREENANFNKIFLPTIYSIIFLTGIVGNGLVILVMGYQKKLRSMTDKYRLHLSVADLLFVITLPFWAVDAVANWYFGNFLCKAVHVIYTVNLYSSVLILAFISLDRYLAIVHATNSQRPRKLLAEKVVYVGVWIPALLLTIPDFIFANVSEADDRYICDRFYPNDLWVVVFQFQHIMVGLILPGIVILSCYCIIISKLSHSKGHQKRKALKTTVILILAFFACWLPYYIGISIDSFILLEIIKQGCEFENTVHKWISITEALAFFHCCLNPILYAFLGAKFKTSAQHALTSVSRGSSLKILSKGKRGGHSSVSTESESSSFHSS", "assay": "Three parallel CXCR4 competitive binding assays (FITC-CVX15, FITC-DV1, 12G5) compared", "parameters": "expressed in transfected cells; host or cells: CHO (CHO-CXCR4, G418-selected)", "details": "for difference of IC50 values between the three binding systems: Type 1, relative to the minimum values", "protocol": "(§1) Gradient concentrations of CXCR4 ligands were prepared with 1% BSA/PBS. CHO-CXCR4 cells were cultured and diluted into 5 × 10^5 cells/mL in 0.5% BSA/PBS. One hundred microliters of above cell solutions were added to each well of a 96-well plate and washed twice with 0.5% BSA/PBS. Cells were then incubated with 100 μL primary 12G5 Ab (1:2000, mouse anti-human CD184 antibody, BD Biosciences, CA, USA) in 0.5% BSA/PBS except for negative control group and gradient concentrations of CXCR4 ligands for 40 min on a shaker at 4 °C."}, "CXCR4 [2]": {"target": "T1, CXCR4", "assay": "FITC-CVX15-based competitive binding assay on CHO-CXCR4 cells", "parameters": "expressed in transfected cells; host or cells: CHO (CHO-CXCR4, G418-selected)"}, "CXCR4 [3]": {"target": "T1, CXCR4", "assay": "cell-based"}, "CXCR4 [4]": {"target": "T1, CXCR4", "assay": "12G5 antibody-based competitive binding assay on CHO-CXCR4 cells", "parameters": "expressed in transfected cells; host or cells: CHO (CHO-CXCR4, G418-selected)", "protocol": "as §1"}, "[5]": {"target": "CXC-type chemokine receptor 4 (CXCR4) (UniProt P61073)", "sequence (P61073 whole entry)": "as above", "assay": "competitive binding on cells, fluorescence by microplate reader; FITC-DV1-based: CHO-CXCR4 cells, 1 μM FITC-DV1 with gradient concentrations of ligand in 1% BSA/PBS, 50 min, 4 °C, dark, washed twice; excitation 485 nm, emission 535 nm"}, "[6]": {"target": "CXC-type chemokine receptor 4 (CXCR4) (UniProt P61073)", "assay": "competitive binding on cells, fluorescence by microplate reader; 12G5-based: CHO-CXCR4 cells, antibody 12G5 (250 ng/mL; 1:2000) with gradient concentrations of ligand in 0.5% BSA/PBS, 40 min, 4 °C; FITC-conjugated goat anti-mouse IgG 30 min; excitation 485 nm, emission 535 nm"}, "[7]": {"target": "CXC-type chemokine receptor 4 (CXCR4) (UniProt P61073)", "assay": "competitive binding on cells, fluorescence by microplate reader; FITC-CVX15-based: CHO-CXCR4 cells, 400 nM FITC-CVX15 with gradient concentrations of ligand in 1% BSA/PBS, 50 min, 4 °C, dark, washed twice; excitation 485 nm, emission 535 nm"}, "[8]": {"target": "CXC-type chemokine receptor 4 (CXCR4) (UniProt P61073)", "assay": "saturation binding on cells, fluorescence by microplate reader"}, "[9]": {"target": "T2, CXC-type chemokine receptor 4 (CXCR4) (UniProt P61073 1-352)", "T2 construct": "also called CD184; CHO-CXCR4", "T2 sequence (P61073 whole entry)": "as above", "assay": "competitive binding on cells, fluorescence by microplate reader; 12G5-based: CHO-CXCR4 cells, antibody 12G5 (250 ng/mL; 1:2000) with gradient concentrations of ligand in 0.5% BSA/PBS, 40 min, 4 °C; FITC-conjugated goat anti-mouse IgG 30 min; excitation 485 nm, emission 535 nm", "details": "one partner purified"}, "[10]": {"target": "T2, CXC-type chemokine receptor 4 (CXCR4)", "assay": "competitive binding on cells, fluorescence by microplate reader; FITC-DV1-based: CHO-CXCR4 cells, 1 μM FITC-DV1 with gradient concentrations of ligand in 1% BSA/PBS, 50 min, 4 °C, dark, washed twice; excitation 485 nm, emission 535 nm", "details": "one partner purified"}, "[11]": {"target": "T2, CXC-type chemokine receptor 4 (CXCR4)", "assay": "competitive binding on cells, fluorescence by microplate reader; FITC-CVX15-based: CHO-CXCR4 cells, 400 nM FITC-CVX15 with gradient concentrations of ligand in 1% BSA/PBS, 50 min, 4 °C, dark, washed twice; excitation 485 nm, emission 535 nm", "details": "one partner purified"}}, "note": "Bridge positions count the residues as written; N and C are the ends. Square brackets hold non-standard residues; d marks the D form. Ends that are not written are not given here. Peptide text beside a SMILES is read from it. 2Nal = N[C@@H](Cc1ccc2ccccc2c1)C(=O)O; Lys(iPr) = CC(C)NCCCC[C@H](N)C(=O)O; Cit = NC(=O)NCCC[C@H](N)C(=O)O"}
{"molecule": "N=C(N)NCCC[C@@H]1NC(=O)[C@@H]2CSSC[C@H](NC(=O)[C@H](Cc3ccc4ccccc4c3)NC(=O)[C@H](CCCNC(=N)N)NC(=O)[C@H](CCCNC(=N)N)NC(=O)[C@H]3CCCN3C(=O)CNC1=O)C(=O)N[C@@H](Cc1ccc(O)cc1)C(=O)N[C@@H](CCC(N)=O)C(=O)N[C@@H](CCCCN)C(=O)N1CCC[C@@H]1C(=O)N1CCC[C@H]1C(=O)N[C@@H](Cc1ccc(O)cc1)C(=O)N[C@@H](CCCNC(=N)N)C(=O)N[C@@H](CCCNC(N)=O)C(=O)N2", "note": "[CVX15] (cyclo(RR[2Nal]CYQK[dP]PYR[Cit]CRG[dP]); disulfide 4-13)", "values": [{"measurement": "difference of IC50 values between the three binding systems", "setting": "CXCR4 [1]", "result": "less than two folds"}]}
{"molecule": "CC(C)C[C@@H](N)C(=O)NCC(=O)N[C@H](C)C(=O)N[C@H](CO)C(=O)N[C@H](Cc1c[nH]c2ccccc12)C(=O)N[C@H](Cc1c[nH]cn1)C(=O)N[C@H](CCCNC(=N)N)C(=O)N1CCC[C@@H]1C(=O)N[C@H](CC(=O)O)C(=O)N[C@H](CCCCN)C(=O)N[C@H](CS)C(=O)N[C@H](CS)C(=O)N[C@H](CC(C)C)C(=O)NCC(=O)N[C@H](Cc1ccc(O)cc1)C(=O)N[C@H](CCC(N)=O)C(=O)N[C@H](CCCCN)C(=O)N[C@H](CCCNC(=N)N)C(=O)N1CCC[C@@H]1C(=O)N[C@H](CC(C)C)C(=O)N1CCC[C@@H]1C(N)=O", "note": "[DV1] (H-[dL]G[dA][dS][dW][dH][dR][dP][dD][dK][dC][dC][dL]G[dY][dQ][dK][dR][dP][dL][dP]-NH2)", "values": [{"measurement": "difference of IC50 values between the three binding systems", "setting": "CXCR4 [1]", "result": "less than two folds"}]}
{"molecule": "CC(C)C[C@H](NC(=O)[C@H](CS)NC(=O)[C@H](CS)NC(=O)[C@H](CCCCN)NC(=O)[C@H](CC(=O)O)NC(=O)[C@@H]1CCCN1C(=O)[C@H](CCCNC(=N)N)NC(=O)[C@H](Cc1c[nH]cn1)NC(=O)[C@H](Cc1c[nH]c2ccccc12)NC(=O)[C@H](CO)NC(=O)[C@H](C)NC(=O)CNC(=O)[C@@H](N)CC(C)C)C(=O)NCC(=O)N[C@@H](Cc1ccc(O)cc1)C(=O)N[C@@H](CCC(N)=O)C(=O)N[C@@H](CCCCN)C(=O)N[C@@H](CCCNC(=N)N)C(=O)N1CCC[C@H]1C(=O)N[C@@H](CC(C)C)C(=O)N1CCC[C@H]1C(=O)O", "note": "[V1] (H-LGASWHRPDKCCLGYQKRPLP-OH)", "values": [{"measurement": "difference of IC50 values between the three binding systems", "setting": "CXCR4 [1]", "result": "less than two folds"}, {"measurement": "IC50", "setting": "CXCR4 [2]", "result": 687, "unit": "nM"}, {"measurement": "IC50", "setting": "CXCR4 [3]", "result": 676, "unit": "nM"}, {"measurement": "IC50", "setting": "CXCR4 [4]", "result": 712, "unit": "nM"}]}
{"molecule": "CVX15 (peptide)", "values": [{"measurement": "IC50", "setting": "[5]", "result": 6.8, "unit": "nM"}, {"measurement": "IC50", "setting": "[6]", "result": 6, "unit": "nM"}, {"measurement": "IC50", "setting": "[7]", "result": 6.2, "unit": "nM"}]}
{"molecule": "FITC-CVX15 (peptide)", "values": [{"measurement": "concentration at which the fluorescent signal reached a plateau", "setting": "[8]", "result": 400, "unit": "nM"}]}
{"molecule": "CC(C)NCCCC[C@H](NC(=O)[C@H]1CCC(=O)N[C@@H](Cc2ccccc2)C(=O)N[C@@H](Cc2ccc(O)cc2)C(=O)N[C@@H](CCCCNC(C)C)C(=O)N[C@H](CCCNC(=N)N)C(=O)N[C@@H](Cc2ccc3ccccc3c2)C(=O)NCC(=O)N1)C(N)=O", "note": "[LY2510924] (FY[Lys(iPr)][dR][2Nal]G[dE][Lys(iPr)]-NH2; lactam N-7)", "values": [{"measurement": "IC50 from 12G5-based assay versus IC50 from FITC-CVX15 and FITC-DV1 assays", "setting": "CXCR4 [1]; Type 3", "result": "over two-fold higher"}]}
{"molecule": "B1", "values": [{"measurement": "IC50", "setting": "[9]", "result": 67, "unit": "nM"}, {"measurement": "IC50", "setting": "[10]", "result": 25.6, "unit": "nM"}, {"measurement": "IC50", "setting": "[11]", "result": 29.4, "unit": "nM"}]}
